For data set [1] the following is noted: model input; ref SimCYP library version 19; cited from earlier work.
The conditions of data set [2]: ref SimCYP library version 19, cited from earlier work.
Data set [3] relates to CYP3A4. Also noted: method as in SimCYP library version 19. Conditions: ref SimCYP library version 19; cited from earlier work.
On the set-up of data set [4]: method as in SimCYP library version 19. Conditions: ref SimCYP library version 19; cited from earlier work.
In a further data set the test system is Caco-2. Conditions: ref SimCYP library version 19, cited from earlier work.
Another data set deals with CYP2C19. The settings on record: read-out: CYP2C19 Ki; competitive inhibition; ref SimCYP library version 19; cited from earlier work.
The test system of a further data set is CYP2C9. Conditions: read-out: CYP2C9 Ki; competitive inhibition; ref SimCYP library version 19; cited from earlier work.
For data set [5] the following is noted: model input; ref SimCYP library version 19; cited from earlier work. The source holds these as a separate data set.
Data set [6] has as its system CYP3A4. The settings on record: cited from earlier work.
Data set [7] deals with CYP1A2. Conditions: read-out: CYP1A2 Ki; competitive inhibition; ref SimCYP library version 19; cited from earlier work.
The test system of the next data set is CYP2D6. Conditions: read-out: CYP2D6 Ki; competitive inhibition; ref SimCYP library version 19; cited from earlier work.
In data set [8] the test system is CYP3A4. In words: Clinical DDI study of PB-201 with ketoconazole (NCT01468714). Type of data set: in vivo, human. The settings on record: inferred from clinical DDI study with strong CYP3A inhibitor.
For data set [9] the following is noted: cited from earlier work.
Data set [10] in a line: Clinical pharmacokinetic studies of PB-201. Type of data set: in vivo. The settings on record: humans.
Data set [11] deals with CYP3A4. Conditions: ref NCT01468714, cited from earlier work.
A short description of data set [12]: Physicochemical properties.
Data set [13] in a line: Allometric scaling of clearance. The settings on record: rats, dogs, and monkeys; clearance (intravenous), body weight, plasma unbound fraction.
On the set-up of data set [14]: method as in earlier work. The settings on record: bile duct‐cannulated rats; cited from earlier work.
For the next data set, the system named is OATP1B3. Also noted: method as in unpublished. Conditions: ref unpublished; cited from earlier work.
In a further data set the test system is OATP1B1. Also on record: method as in unpublished. Conditions: ref unpublished; cited from earlier work.
For data set [15] the following is noted: cited from earlier work. This is another data set of the same source.
Data set [16] can be described thus: Apparent permeability in Caco-2 monolayers. Format: in vitro ADME. Conditions: human. A general note: Caco-2 cells form a polarised layer with tight junctions and transporters.
The test system of the next data set is Caco‐2 monolayers. Nature of the data set: Apparent permeability in Caco-2 monolayers. Conditions: Caco‐2, 10 μM, 2 h. Type of data set: in vitro ADME.
The test system of a further data set is MDCK II. The settings on record: fluvoxamine file with reference compounds; ref SimCYP library version 19; cited from earlier work.
The target in data set [17] is T1, P-gp (Homo sapiens, UniProt P08183).
T1 construct: endogenous in cells; host or cells: Caco-2
Nature of the data set: P-gp substrate assessment in Caco-2 monolayers with verapamil. Type of data set: in vitro ADME. The settings on record: Caco-2, with verapamil (concentration not stated), read-out: Efflux ratio P app,BL→AP/AP→BL, with inhibitor.

Data set [18] concerns T2, P-gp.
T2 construct: endogenous in cells; host or cells: Caco-2
Described as above. Conditions: human, Caco-2, with verapamil (concentration not stated). Type of data set: in vitro ADME.

For data set [19] the following is noted: model input; ref SimCYP library version 19; cited from earlier work. This is another data set of the same source.
For data set [20], the system named is CYP2C8. Also on record: method as in SimCYP library version 19. Conditions: ref SimCYP library version 19, cited from earlier work.
For data set [21], the system named is CYP2C8. Also noted: method as in SimCYP library version 19. The settings on record: ref SimCYP library version 19; cited from earlier work.
The next data set relates to CYP2B6. Also on record: method as in SimCYP library version 19. The settings on record: ref SimCYP library version 19, cited from earlier work.
Data set [22] relates to CYP1A2. Also noted: method as in SimCYP library version 19. The settings on record: ref SimCYP library version 19; cited from earlier work.
Setting [23] is: pH 7.4: pH 7.4, Passive&Active, erythromycin file with reference compounds.

Converted amounts (≈) assume the structure as drawn. “And” between values parts separate entries of the source, which are not always exact repeats. Equal entries are not always repeated. Where two headings read alike, the source gives them in different places.

T1 sequence (P08183 whole entry): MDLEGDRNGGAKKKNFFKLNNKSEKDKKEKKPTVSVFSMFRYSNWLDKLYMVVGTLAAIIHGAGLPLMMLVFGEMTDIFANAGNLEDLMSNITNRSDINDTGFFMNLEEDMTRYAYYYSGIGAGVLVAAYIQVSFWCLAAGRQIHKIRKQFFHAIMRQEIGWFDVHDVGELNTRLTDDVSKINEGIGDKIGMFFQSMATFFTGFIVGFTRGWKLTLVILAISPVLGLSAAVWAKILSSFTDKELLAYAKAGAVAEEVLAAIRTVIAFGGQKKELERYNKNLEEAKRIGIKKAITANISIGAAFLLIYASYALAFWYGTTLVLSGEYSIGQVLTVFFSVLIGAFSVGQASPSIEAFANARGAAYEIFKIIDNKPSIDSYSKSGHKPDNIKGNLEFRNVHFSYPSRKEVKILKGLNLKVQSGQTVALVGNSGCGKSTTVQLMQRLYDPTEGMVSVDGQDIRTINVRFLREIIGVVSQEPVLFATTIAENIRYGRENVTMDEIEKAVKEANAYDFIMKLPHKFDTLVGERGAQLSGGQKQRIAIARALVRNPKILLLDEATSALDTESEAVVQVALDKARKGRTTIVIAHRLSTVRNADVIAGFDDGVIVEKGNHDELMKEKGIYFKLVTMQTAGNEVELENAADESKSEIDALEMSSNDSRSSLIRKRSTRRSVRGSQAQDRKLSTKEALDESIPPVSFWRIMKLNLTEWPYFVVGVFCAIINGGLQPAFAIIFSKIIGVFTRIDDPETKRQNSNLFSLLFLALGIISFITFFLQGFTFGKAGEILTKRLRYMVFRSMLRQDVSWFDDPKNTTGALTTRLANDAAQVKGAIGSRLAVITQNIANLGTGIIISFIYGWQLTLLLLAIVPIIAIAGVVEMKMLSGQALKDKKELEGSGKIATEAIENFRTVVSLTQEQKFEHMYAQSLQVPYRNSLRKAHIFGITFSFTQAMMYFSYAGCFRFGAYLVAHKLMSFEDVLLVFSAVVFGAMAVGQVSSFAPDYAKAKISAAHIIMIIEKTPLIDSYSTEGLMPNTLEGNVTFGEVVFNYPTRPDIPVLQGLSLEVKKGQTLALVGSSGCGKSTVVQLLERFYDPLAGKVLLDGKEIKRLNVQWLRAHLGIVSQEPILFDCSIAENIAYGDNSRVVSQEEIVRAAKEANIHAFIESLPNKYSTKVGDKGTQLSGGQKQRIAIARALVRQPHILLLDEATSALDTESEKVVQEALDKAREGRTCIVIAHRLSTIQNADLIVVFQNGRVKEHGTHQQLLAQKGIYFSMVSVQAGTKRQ

As for `CC[C@H]1OC(=O)[C@H](C)[C@@H](O[C@H]2C[C@@](C)(OC)[C@@H](O)[C@H](C)O2)[C@H](C)[C@@H](O[C@@H]2O[C@H](C)C[C@H](N(C)C)[C@H]2O)[C@](C)(O)C[C@@H](C)C(=O)[C@H](C)[C@@H](O)[C@]1(C)O` [Erythromycin], the “Fraction unbound in plasma” value in [1] was 0.31. Also, the Vss in [2] (minimal PBPK model) is on record as 0.75/30 L/kg. Moreover, in data set [2] (single adjusting compartment), the “Volume [Vsac]” value was 1e-05 L/kg, the kin is 0 h⁻¹ and the kout was 0 h⁻¹. Further, the “CYP3A4 Kapp” value in the data set on CYP3A4 [3] was 23.2 µM. In addition, the CLR in [4] is listed as 3.13 L/h. Also, the “Caco-2 Papp” value in the data set with Caco-2 (setting [23]) is reported as 1.7 10^-6 cm/s.

As to `COCCCC/C(=N\OCCN)c1ccc(C(F)(F)F)cc1` [Fluvoxamine], the Ki (commonly the dissociation constant of the complex between target and ligand, obtained from inhibition or displacement) with CYP2C19 is 6 nM; in the data set on CYP2C9, 126 nM; with CYP3A4 [6], […]; in the data set with CYP1A2 [7], 2 nM; in the data set with CYP2D6, 189 nM. Also, the “pKa 1” value in [5] is listed as 8.7.

Take `Cc1cnc(NC(=O)c2cc(Oc3cnc(C(=O)N(C)C)nc3)c3cc(C)oc3c2)cn1` [PB‐201, N,N‐dimethyl‐5‐(2‐methyl‐6‐((5‐methylpyrazin‐2‐yl)‐carbamoyl) benzofuran‐4‐yloxy)pyrimidine‐2‐carboxamide]: in the data set with CYP3A4 [8], the “f m of CYP2C9 in vivo” value is reported as “less than 25%”. In data set [9] (clinical studies, exposure‐response relationship, ref unpublished), the “Overall total incidence of hypoglycemia” value is “about 3%”. Besides, in data set [9] (dose range of 3–640 mg), the “Safety and tolerability in clinical studies” value is “safe and tolerable”. Besides, the CL renal in [10] (human, urine, oral, from a clinical trial, source Measured, read-out: Typical renal clearance (converted)) is 1.65 mL/min. Besides, in data set [10] (assuming bioavailability 68% and body weight ~76.89 kg), the Observed distribution volume is 1.983 L/kg. Moreover, the “Increase of PB‐201 systemic exposure on co‐administration with ketoconazole” value in the data set on CYP3A4 [11] (clinical DDI study, strong CYP3A4 inhibitor) is “about 26.4%”. Further, the “Contribution (f m) of CYP3A4 to PB‐201 elimination in vivo” value with CYP3A4 [11] (humans, fasted state, from clinical DDI study) was ~ 26.4% and 26.4%. Besides, in data set [12], the logP (usually a log measure of how a compound divides between an organic and an aqueous phase) is 1.38; the pKa (as a rule, the pH at which an ionisable group is half protonated) was 10.4. Also, in [13], the “Allometric exponent (b)” value is given as “about 0.74”. In addition, the “Contribution of biliary excretion to elimination” value in data set [14] is “about 2.3%”. Also, the OATP1B3 substrate assessment entry in the data set on OATP1B3 is “not a specific substrate”. In addition, the solubility (usually how much of the substance goes into solution per volume) in the data set “physchem” was approximately 3 µg/mL (≈ 6.94 µM). Besides, in the data set on OATP1B1, the OATP1B1 substrate assessment entry was “not a specific substrate”. In [15] (fed (NCT01513928) vs fasted (NCT01272804), same dose, ref NCT01513928), the “Food effect on systemic exposure” value is “significantly increase”. Besides, the “Volume of distribution based on the terminal phase” value in data set [15] (humans, 100 mg, ref NCT01044537) is recorded as ~ 254.4 L. Also, the “Time (median) to reach maximum plasma concentration” value in data set [15] (humans, after multiple doses, ref NCT01272804) was 2 to 3 h. For the same compound, in data set [15] (humans, ref NCT01272804), the “Unchanged drug in the urine” value is recorded as less than 1%.

For the compound `CC(C)NCC(O)COc1cccc2ccccc12` (centres unmarked) [Propranolol], the Papp at 2 h in data set [16] (Caco-2, Apical pH : Basolateral pH 7.4 : 7.4, source Measured, read-out: Caco-2 permeability (model input)) was found to be 29.4 ×10⁻⁶ cm/s. Besides, the Papp B→A at 2 h, 10 μM in data set [16] (Caco‐2, 10 μM, 2 h, read-out: P app,BL→AP, without inhibitor) stood at 23.1 ×10⁻⁶ cm/s; with P-gp [18] (read-out: P app,BL→AP, with inhibitor), 21.9 ×10⁻⁶ cm/s. In addition, the efflux ratio at 2 h, 10 μM in data set [16] (Caco‐2, 10 μM, read-out: Efflux ratio P app,BL→AP/AP→BL, without inhibitor) was 0.785; at P-gp [17] it was 0.382. In addition, the “P app,AP→BL, without inhibitor” value in the data set with Caco‐2 monolayers was 29.4 10^−6 cm/s. The “MDCK II Papp” value with MDCK II is 40.3 10^-6 cm/s. In the data set with P-gp [18] (read-out: P app,AP→BL, with inhibitor), the Papp A→B at 2 h, 10 μM was 57.4 ×10⁻⁶ cm/s. Further, the “Reference compound Papp” value with Caco-2 (Caco-2 pH 6.5: pH 7.4, references of fluconazole file, unit not given) is listed as 27.5. Moreover, the “Caco-2 Papp” value was 21.15 10^-6 cm/s in the data set on Caco-2 (pH 6.5: pH 7.4, Passive, rifampicin file with reference compound) and 147 10^-6 cm/s in the data set on Caco-2 (setting [23]).

With `CO[C@H]1/C=C/O[C@@]2(C)Oc3c(C)c(O)c4c(O)c(c(/C=N/N5CCN(C)CC5)c(O)c4c3C2=O)NC(=O)/C(C)=C\C=C\[C@H](C)[C@H](O)[C@@H](C)[C@@H](O)[C@@H](C)[C@H](OC(C)=O)[C@@H]1C` [Rifampicin], in data set [19], the Lag time is 0/30 h, the QGut is listed as 9.42/30 and the fuGut is reported as 0.14. Also, the “Fraction unbound in plasma” value in data set [1] is given as 0.116. Further, the EC50 in the data set on CYP2C8 [20] (induction, read-out: CYP2C8 IndC50) was 300 nM. Besides, in the data set on CYP2C8 [20], the “fuinc (CYP2C8 induction)” value is 1. Moreover, in data set [2] (single adjusting compartment), the kin was 0 h⁻¹ and the kout is 0 h⁻¹. Moreover, in [5], the lipophilicity (Log P) (in general, a log measure of how a compound divides between an organic and an aqueous phase) is 4.01; the “pKa 1” value was 1.7; the “pKa 2” value was 7.9. Besides, the “fumic (CYP2C8 inhibition)” value in the data set on CYP2C8 [21] is recorded as 1. Further, the EC50 in the data set with CYP2B6 (induction, read-out: CYP2B6 IndC50) is 70 nM. In the data set with CYP2B6, the “fuinc (CYP2B6 induction)” value is reported as 1. In addition, the “fuinc (CYP1A2 induction)” value in the data set on CYP1A2 [22] was 1. Also, the CLR in data set [4] was 1.26 L/h.

The values above are taken from article PMC10349193 (CPT: Pharmacometrics & Systems Pharmacology, 2023).
